Data set [1] deals with P. aeruginosa pyocyanin production. Kind of data set: Pyocyanin assay. Format: cell-based, P. aeruginosa strain PA14. The settings on record: Pseudomonas aeruginosa, PA14, 16 h, read-out: IC50-value towards pyocyanin production. How it is done:
Inhibition of P. aeruginosa pyocyanin production by compounds was determined photometrically as described before. In short, an overnight culture of PA14 in PPGAS medium was washed, diluted in medium to a start OD600 of 0.02, and incubated for 16 h (37° C., 200 rpm, relative humidity 75%) in the presence of test compounds. Then, cultures were extracted with chloroform and re-extracted with 0.2 M HCl. Protonated red colored pyocyanin was determined by measuring OD520 and normalizing to OD600.

The target in the next data set is T1, PqsR (Pseudomonas aeruginosa, UniProt Q9I4X0).
T1 construct: transfected with pEAL08-2 plasmid encoding pqsR under control of promoter tac; expressed in transfected cells; host or cells: Escherichia coli DH5alpha carrying pEAL08-2
As to the kind of experiment: PqsR reporter gene assay in E. coli (β-galactosidase). The format is cell-based. The protocol:
Inhibition of pqsR-dependent gene expression of test compounds was determined in an E. coli based β-galactosidase reporter gene assay. Escherichia coli DH5α was transfected with pEAL08-2 plasmid encoding pqsR under control of promoter tac and β-galactosidase reporter gene lacZ under control of promoter pqsA. Antagonistic effects of compounds were evaluated in the presence of/in competition to 50 nM PQS. A positive control was used to ensure the reliability of individual assays. First, PQS was diluted in methanol and added to the wells of a glass coated 96-deep-well plate, and the solvent was evaporated. Then, compounds were added in 5 μL DMSO to final concentrations of 0.001-10 μM. Overnight cultures of E. coli DH5a×pEAL08-2 were diluted 1:100 in LB medium with ampicillin (50 μg/ml) and incubated at 37° C. with shaking until it reached an OD600 of 0.2. Finally, 995 μL of culture was added to each well and the β-galactosidase activity was determined by ortho-nitrophenyl-β-galactoside conversion in permeabilized cells after a 2.5 h incubation period (37° C., 180 rpm). OD600, OD420, and OD550 were measured using POLARstar Omega (BMG Labtech, Ortenberg, Germany), and the activity was expressed as ratio of the slope of β-galactosidase activity between basal control (no PQS) and solvent control, IC50 values of antagonists were determined by variation of the concentration of the test compounds.
For orientation: A reporter such as luciferase makes a cellular process visible.

Data set [2] can be described thus: Kinetic turbidimetric aqueous solubility. The format is physicochemical. Conditions: aqueous buffer, kinetic from dmso stock; PBS buffer, final DMSO 2%, absorbance 620 nm; read-out: Kinetic Turbidimetric Aqueous Solubility at room temperature for 5 min. The protocol: Kinetic Turbidimetric Aqueous Solubility at room temperature for 5 min. […] Data was analyzed by fitting a four parameter sigmoidal function to the measured and normalized absorbances and AUC calculation providing access to Log S (decadic logarithm of the solubility).

A short description of data set [3]: Metabolic stability in mouse liver microsomes (MLM). The format is in vitro ADME. Conditions: 1 μM compound, 0.5 mg/mL MLM, 1 mM NADPH, 37° C., read-out: half-life (t1/2) towards MLM. The protocol: For the evaluation of phase I metabolic stability, the compound (1 μM) was incubated with 0.5 mg/mL MLM (Corning) and 1 mM NADPH at 37° C. for 0, 5, 10, 15 and 30 min. The metabolic stability of Verapamil, Diphenhydramine and Benzydamine (1 μM each) were determined in parallel to confirm the enzymatic activity of the MLM. The incubation was stopped by addition of 2 volumes of acetonitrile containing internal standard (1 μM Leucine Enkephaline). Samples were centrifuged (15 min, 3,500 rpm). Concentration of the remaining test compound at the different time points was analyzed by HPLC-MS/MS and used to determine half-life (t1/2).
On the technique in general: Microsomes from liver hold many membrane-bound enzymes, among them those of drug oxidation.

SMILES strings stand for the structures.

T1 sequence (Q9I4X0 whole entry): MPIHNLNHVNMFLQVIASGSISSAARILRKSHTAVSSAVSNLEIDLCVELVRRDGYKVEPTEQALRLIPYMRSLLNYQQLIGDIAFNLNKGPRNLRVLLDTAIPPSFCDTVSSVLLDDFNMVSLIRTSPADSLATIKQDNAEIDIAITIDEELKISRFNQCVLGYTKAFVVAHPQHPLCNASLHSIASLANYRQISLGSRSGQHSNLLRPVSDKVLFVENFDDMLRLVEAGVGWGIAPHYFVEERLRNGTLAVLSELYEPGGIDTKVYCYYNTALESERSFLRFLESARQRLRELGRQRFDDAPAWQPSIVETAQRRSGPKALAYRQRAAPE

What is called IC50 is the point on the concentration scale where inhibition reaches its midpoint. Usually solubility stands for how much of the substance goes into solution per volume. In the case of `FC(F)(F)c1cc(NCc2cn(-c3ccc(Oc4ccccc4)cc3)nn2)cc(-c2cn[nH]c2)n1` [Compound 01], the figures for the IC50 (in data set [1]; on PqsR) were 101 to 200 nM and 51 to 250 nM, respectively. Besides, the solubility at 5 min in data set [2] is greater than 25 µM.
For `FC(F)(F)c1cc(NCc2cn(-c3ccc(Oc4ccccc4)cc3)nn2)cc(-n2ccnc2)n1` [Compound 02, 2-(1H-Imidazol-1-yl)-N-((1-(4-phenoxyphenyl)-1H-1,2,3-triazol-4-yl)methyl)-6-(trifluoromethyl)pyridin-4-amine], the IC50 is 201 to 500 nM in data set [1] and no more than 50 nM on PqsR. Moreover, the solubility at 5 min in data set [2] is greater than 25 µM.
Regarding `FC(F)(F)c1cc(NCc2cn(-c3ccc(Oc4ccccc4)cc3)nn2)cc(-n2cncn2)n1` [Compound 03, N-((1-(4-Phenoxyphenyl)-1H-1,2,3-triazol-4-yl)methyl)-2-(1H-1,2,4-triazol-1-yl)-6-(trifluoromethyl)pyridin-4-amine], the IC50 in data set [1] was 201 to 500 nM; against PqsR, no more than 50 nM. Moreover, the half-life at 1 µM in data set [3] fell in the range of 1.02 to 1.67 h. Moreover, the solubility at 5 min in data set [2] is greater than 25 µM.
Consider `Fc1ccccc1Oc1ccc(-n2cc(CNc3cc(-c4cn[nH]c4)nc(C(F)(F)F)c3)nn2)cc1` [Compound 04, N-((1-(4-(2-Fluorophenoxy)phenyl)-1H-1,2,3-triazol-4-yl)methyl)-2-(1H-pyrazol-4-yl)-6-(trifluoromethyl)pyridin-4-amine], for which the IC50 in data set [1] was 101 to 200 nM; against PqsR, no more than 50 nM. Also, the half-life at 1 µM in data set [3] is 0.5 to 1 h. In data set [2], the solubility at 5 min was greater than 10 µM.
In the case of `CC(C)Oc1ccc(-n2cc(CNc3cc(-c4cn[nH]c4)nc(C(F)(F)F)c3)nn2)cc1Cl` [Compound 07, N-((1-(3-Chloro-4-isopropoxyphenyl)-1H-1,2,3-triazol-4-yl)methyl)-2-(1H-pyrazol-4-yl)-6-(trifluoromethyl)pyridin-4-amine], the results for the IC50 (in data set [1]; on PqsR) were no more than 100 nM and no more than 50 nM, respectively. In addition, the half-life at 1 µM in data set [3] lay within 0.5 to 1 h. Moreover, the solubility at 5 min in data set [2] is greater than 25 µM.
For `CC(C)Oc1ccc(-n2cc(CNc3cc(Cl)nc(-c4cn[nH]c4)c3)nn2)cc1Cl` [Compound 08, 2-Chloro-N-((1-(3-chloro-4-isopropoxyphenyl)-1H-1,2,3-triazol-4-yl)methyl)-6-(1H-pyrazol-4-yl)pyridin-4-amine], the values for the IC50 (in data set [1]; against PqsR) were 201 to 500 nM and no more than 50 nM, respectively. In data set [2], the solubility at 5 min is greater than 25 µM.
For `CC(C)Oc1ccc(-n2cc(CNc3cc(C#N)nc(-c4cn[nH]c4)c3)nn2)cc1Cl` [Compound 09, 4-(((1-(3-Chloro-4-isopropoxyphenyl)-1H-1,2,3-triazol-4-yl)methyl)amino)-6-(1H-pyrazol-4-yl)picolinonitrile] the same measures were 201 to 500 nM, no more than 50 nM and greater than 10 µM.
Consider `Cn1cc(-c2cc(NCc3cn(-c4ccc(Oc5ccccc5)cc4)nn3)cc(C(F)(F)F)n2)cn1` [Compound 10, 2-(1-Methyl-1H-pyrazol-4-yl)-N-((1-(4-phenoxyphenyl)-1H-1,2,3-triazol-4-yl)methyl)-6-(trifluoromethyl)pyridin-4-amine], for which the IC50 in data set [1] was 201 to 500 nM; against PqsR, no more than 50 nM. For the same compound, the half-life at 1 µM in data set [3] was 0.5 to 1 h. For the same compound, the solubility at 5 min in data set [2] is greater than 25 µM.
The corresponding values for `CC(C)Oc1ccc(-c2ncc(CNc3cc(-c4cn[nH]c4)nc(C(F)(F)F)c3)s2)cc1` [Compound 11, N-((2-(4-Isopropoxyphenyl)thiazol-5-yl)methyl)-2-(1H-pyrazol-4-yl)-6-(trifluoromethyl)pyridin-4-amine] are no more than 100 nM, no more than 50 nM, 0.5 to 1 h and greater than 10 µM.
As to `CC(C)Oc1ccc(-c2ncc(CNc3cc(C#N)nc(-c4cn[nH]c4)c3)s2)cc1` [Compound 12, 4-(((2-(4-Isopropoxyphenyl)thiazol-5 yl)methyl)amino)-6-(1H-pyrazol-4-yl)picolinonitrile], the IC50 in data set [1] was no more than 100 nM; on PqsR it was no more than 50 nM. Further, the half-life at 1 µM in data set [3] was in the range of 0.5 to 1 h. Besides, in data set [2], the solubility at 5 min was greater than 10 µM.
On to `CC(C)Oc1ccc(-c2ncc(CNc3cc(-c4cnn(C)c4)nc(C(F)(F)F)c3)s2)cc1` [Compound 13, N-((2-(4-Isopropoxyphenyl)thiazol-5-yl)methyl)-2-(1-methyl-1H-pyrazol-4-yl)-6-(trifluoromethyl)pyridin-4-amine], for which the IC50 in data set [1] lay within 201 to 500 nM; against PqsR, 51 to 250 nM. Further, the half-life at 1 µM in data set [3] lay in the range of 0.5 to 1 h. The solubility at 5 min in data set [2] was greater than 10 µM.
Take `CC(C)Oc1ccc(-c2ncc(CNc3cc(-c4cc[nH]n4)nc(C(F)(F)F)c3)s2)cc1` [Compound 14, N-((2-(4-Isopropoxyphenyl)thiazol-5-yl)methyl)-2-(1H-pyrazol-3-yl)-6-(trifluoromethyl)pyridin-4-amine]: the IC50 in data set [1] lay within 201 to 500 nM; at PqsR it was 51 to 250 nM. In addition, the half-life at 1 µM in data set [3] was greater than 1.67 h. Besides, in data set [2], the solubility at 5 min is greater than 10 µM.
For `CC(C)Oc1ccc(-c2ncc(CNc3cc(-n4ccnc4)nc(C(F)(F)F)c3)s2)cc1` [Compound 15, 2-(1H-Imidazol-1-yl)-N-((2-(4-isopropoxyphenyl)thiazol-5-yl)methyl)-6-(trifluoromethyl)pyridin-4-amine] the same measures were no more than 100 nM, no more than 50 nM, 0.5 to 1 h and greater than 10 µM.
As for `CC(C)Oc1ccc(-c2ncc(CNc3cc(-n4ccnc4)nc(C(F)(F)F)c3)s2)cc1Cl` [Compound 16, N-((2-(3-Chloro-4-isopropoxyphenyl)thiazol-5-yl)methyl)-2-(1H-imidazol-1-yl)-6-(trifluoromethyl)pyridin-4-amine], the IC50 is 101 to 200 nM in data set [1] and 51 to 250 nM at PqsR. Moreover, in data set [3], the half-life at 1 µM is greater than 1.67 h.
As for `CC(C)Oc1ccc(-c2ncc(CNc3cc(-n4cncn4)nc(C(F)(F)F)c3)s2)cc1Cl` [Compound 18, N-((2-(3-Chloro-4-isopropoxyphenyl)thiazol-5-yl)methyl)-2-(7H-1,2,4-triazol-1-yl)-6-(trifluoromethyl)pyridin-4-amine], the IC50 in data set [1] is no more than 100 nM; on PqsR, no more than 50 nM. Also, the half-life at 1 µM in data set [3] was greater than 1.67 h.
`Cn1cc(-c2cc(SCc3nc4cc(Oc5ccccc5)ccc4[nH]3)cc(C(F)(F)F)n2)cn1` [Compound 65, 2-(((2-(1-Methyl-1H-pyrazol-4-yl)-6-(trifluoromethyl)pyridin-4-yl)thio)methyl)-5-phenoxy-1H-benzo[d]imidazole] showed an IC50 against PqsR of 51 to 250 nM. In addition, the solubility at 5 min in data set [2] was greater than 10 µM.
For `FC(F)(F)c1cc(SCc2nc3cc(Oc4ccccc4)ccc3[nH]2)cc(-n2cncn2)n1` [Compound 66, 2-(((2-(1H-1,2,4-Triazol-1-yl)-6-(trifluoromethyl)pyridin-4-yl)thio)methy)-5-phenoxy-1H-benzo[d]imidazole], the values for the IC50 (in data set [1]; at PqsR) were 101 to 200 nM and no more than 50 nM, respectively. For the same compound, the solubility at 5 min in data set [2] is greater than 10 µM.
Compound `CC(C)Oc1ccc(-n2cc(CNc3cc(-c4cccnc4)nc(C(F)(F)F)c3)nn2)cc1Cl` [Compound 67, N-((1-(3-Chloro-4-isopropoxyphenyl)-1H-1,2,3-triazol-4-yl)methyl)-6-(trifluoromethyl)-[2,3′-bipyridin]-4-amine] registered an IC50 against PqsR of 51 to 250 nM.
With `CC(C)Oc1ccc(-c2ncc(CNc3cc(-c4ccc(C#N)nc4)nc(C(F)(F)F)c3)s2)cc1` [Compound 68, 4-(((2-(4-Isopropoxyphenyl)thiazol-5-yl)methyl)amino)-6-(trifluoromethyl)-[2,3′-bipyridine]-6′-carbonitrile], the IC50 in data set [1] lay in the range of 201 to 500 nM. For the same compound, the half-life at 1 µM in data set [3] is greater than 1.67 h. The solubility at 5 min in data set [2] is greater than 25 µM.

For the origin of these results see US20230106506A1, “NOVEL PqsR INVERSE AGONISTS” (Helmholtz-Zentrum Fur Infektionsforschung GmbH, priority 2020, published 2023).
